IC50 data for twelve compounds are collected here from patent US11173145B2, “Compounds useful as inhibitors of indoleamine 2,3-dioxygenase and/or tryptophan dioxygenase” (Board of Regents, The University of Texas System, priority 2017, dated 2021).

The assay deals with T1, IDO1 (Homo sapiens, UniProt P14902).
T1 construct: endogenous in cells; host or cells: HeLa cells (ATCC), IFNgamma-induced
Description: IDO1 cell-based assay (HeLa cells, IFNgamma-induced, N-formylkynurenine/L-tryptophan by RFMS). The following applies: 10 ng/mL IFNgamma, 24 hours. Put shortly:
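HeLa cells stimulated with 10 ng/mL IFNgamma and exposed to compound (0.5% DMSO final) for 24 h at 37 °C. Conditioned media deproteinized, then N-formylkynurenine and L-tryptophan quantified by RapidFire MS with deuterated tryptophan internal standard; IC50 by curve fitting. Viability checked by CellTiter-Glo.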

A value given as a limit tells only on which side of the number the result lay.

T1 sequence (P14902 whole entry): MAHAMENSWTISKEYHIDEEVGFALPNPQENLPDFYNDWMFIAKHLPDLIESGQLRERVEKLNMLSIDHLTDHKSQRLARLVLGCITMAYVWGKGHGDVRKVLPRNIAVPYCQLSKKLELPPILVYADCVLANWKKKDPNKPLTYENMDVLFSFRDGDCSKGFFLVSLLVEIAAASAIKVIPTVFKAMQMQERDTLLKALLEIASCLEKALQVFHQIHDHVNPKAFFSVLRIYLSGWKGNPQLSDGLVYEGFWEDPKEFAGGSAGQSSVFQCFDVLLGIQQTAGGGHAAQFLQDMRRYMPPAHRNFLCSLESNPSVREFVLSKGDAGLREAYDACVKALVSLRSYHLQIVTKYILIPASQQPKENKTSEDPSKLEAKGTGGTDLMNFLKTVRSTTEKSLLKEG

With `C=C(C)c1cn([C@@H]2C[C@@H]3[C@H](C2)[C@H]3C(CC)NC(=O)c2ccc(Cl)cc2)nn1` (stereo partly drawn) [Compound 147, 4-chloro-N-(1-((1R,3s,5S,6r)-3-(4-(prop-1-en-2-yl)-1H-1,2,3-triazol-1-yl)bicyclo[3.1.0]hexan-6-yl)propyl)benzamide], the half-maximal inhibitory concentration (IC50) (as a rule, the concentration needed to halve the response being measured) is less than 200 nM. In the case of `CC[C@@H](NC(=O)c1ccc(Cl)cc1)[C@H]1[C@@H]2C[C@@H](Oc3cnnc4ccccc34)C[C@@H]21` [Compound 104, 4-chloro-N-((R)-1-((1R,3S,5S,6r)-3-(cinnolin-4-yloxy)bicyclo[3.1.0]hexan-6-yl)propyl)benzamide], the IC50 was less than 200 nM.

In turn, `CC[C@@H](NC(=O)c1ccc(Cl)cc1)[C@H]1[C@@H]2C[C@@H](Nc3ccccc3C(=O)O)C[C@@H]21` [Compound 346, 2-(((1R,3S,5S,6r)-6-((R)-1-(4-chlorobenzamido)propyl)bicyclo[3.1.0]hexan-3-yl)amino)benzoic acid] registered an IC50 of less than 200 nM.

Turning to `Clc1ccc(-c2nnc(C3C4CC(Oc5ccnc6ccccc56)CC43)o2)cc1` (stereo not drawn) [Compound 11, 2-(4-chlorophenyl)-5-(3-(quinolin-4-yloxy)bicyclo[3.1.0]hexan-6-yl)-1,3,4-oxadiazole], the half-maximal inhibitory concentration (IC50) was greater than 5000 nM. Regarding `CCC(NC(=O)c1ccc(Cl)cc1)[C@H]1[C@@H]2C[C@@H](Oc3c(F)cccc3F)C[C@@H]21` (stereo partly drawn) [Compound 44, 4-chloro-N-(1-((1R,3s,5S,6r)-3-(2,6-difluorophenoxy)bicyclo[3.1.0]hexan-6-yl)propyl)benzamide], the IC50 is less than 200 nM.

With `CC[C@@H](NC(=O)c1ccc(Cl)cc1)[C@H]1[C@@H]2C[C@@H](Nc3ncnc4ccc(F)cc34)C[C@@H]21` [Compound 336, 4-chloro-N-((R)-1-((1R,3S,5S,6r)-3-((6-fluoroquinazolin-4-yl)amino)bicyclo[3.1.0]hexan-6-yl)propyl)benzamide], the IC50 is less than 200 nM. Consider `CCC(NC(=O)c1ccc(C#N)cc1)[C@H]1[C@@H]2C[C@@H](Oc3cnnc4ccccc34)C[C@@H]21` (stereo partly drawn) [Compound 80, N-(1-((1R,3s,5S,6r)-3-(cinnolin-4-yloxy)bicyclo[3.1.0]hexan-6-yl)propyl)-4-cyanobenzamide], for which the 50% inhibitory concentration (IC50) was less than 200 nM.

In the case of `C[C@@H](NC(=O)c1ccc(Cl)cc1)[C@H]1[C@@H]2C[C@@H](Oc3cc(Cl)ccc3C(=O)O)C[C@@H]21` [Compound 341, 4-chloro-2-(((1R,3S,5S,6r)-6-((R)-1-(4-chlorobenzamido)ethyl)bicyclo[3.1.0]hexan-3-yl)oxy)benzoic acid], the IC50 fell in the range of 2000 to 5000 nM. In turn, `O=C(NC[C@@H]1[C@H]2C[C@H](n3cnc4cc(F)c(F)cc43)C[C@@H]12)c1cccc(Cl)c1` [Compound 316, 3-chloro-N-(((1R,3s,5S,6r)-3-(5,6-difluoro-1H-benzo[d]imidazol-1-yl)bicyclo[3.1.0]hexan-6-yl)methyl)benzamide] returned a 50% inhibitory concentration (IC50) of 200 to 2000 nM. In turn, `CCC(NC(=O)c1ccc(Cl)cc1)[C@H]1[C@@H]2C[C@@H](Oc3ncncc3F)C[C@@H]21` (stereo partly drawn) [Compound 54, 4-chloro-N-(1-((1R,3s,5S,6r)-3-((5-fluoropyrimidin-4-yl)oxy)bicyclo[3.1.0]hexan-6-yl)propyl)benzamide] came in with an IC50 of less than 200 nM. `COc1ccc(C(=O)NC(C)[C@H]2[C@@H]3C[C@@H](Oc4ncnc5ccc(F)cc45)C[C@@H]32)cn1` (stereo partly drawn) [Compound 115, N-(1-((1R,3s,5S,6r)-3-((6-fluoroquinazolin-4-yl)oxy)bicyclo[3.1.0]hexan-6-yl)ethyl)-6-methoxynicotinamide]: the half-maximal inhibitory concentration (IC50) was less than 200 nM. As to `CC[C@@H](NC(=O)c1ccc(Cl)cc1)[C@H]1[C@@H]2C[C@@H](Nc3cc(Cl)ccc3[N+](=O)[O-])C[C@@H]21` [Compound 284, 4-chloro-N-((R)-1-((1R,3S,5S,6r)-3-((5-chloro-2-nitrophenyl)amino)bicyclo[3.1.0]hexan-6-yl)propyl)benzamide], the IC50 was less than 200 nM.
